These results are taken from US9718828B2 (MERCK SHARP & DOHME CORP., priority 2011, dated 2017).

Where a name gives a salt, the structure may show the parent alone.

The target of the first assay is hBTK (full-length BTK, 6HIS-tag cleaved) (Homo sapiens (Human), UniProt Q06187). Nature of the assay: BTK enzymatic activity, LANCE TR-FRET assay (Assay Method C). In kind it is biochemical. As to conditions: LANCE TR-FRET, 50 pM hBTK, 25 μM ATP; class 100-1000 is given as ≧100 nM-<1 μM; read-out: IC50 Btk activity values - Assay Method C.
Sequence of hBTK (full-length BTK, 6HIS-tag cleaved) (Q06187 whole entry): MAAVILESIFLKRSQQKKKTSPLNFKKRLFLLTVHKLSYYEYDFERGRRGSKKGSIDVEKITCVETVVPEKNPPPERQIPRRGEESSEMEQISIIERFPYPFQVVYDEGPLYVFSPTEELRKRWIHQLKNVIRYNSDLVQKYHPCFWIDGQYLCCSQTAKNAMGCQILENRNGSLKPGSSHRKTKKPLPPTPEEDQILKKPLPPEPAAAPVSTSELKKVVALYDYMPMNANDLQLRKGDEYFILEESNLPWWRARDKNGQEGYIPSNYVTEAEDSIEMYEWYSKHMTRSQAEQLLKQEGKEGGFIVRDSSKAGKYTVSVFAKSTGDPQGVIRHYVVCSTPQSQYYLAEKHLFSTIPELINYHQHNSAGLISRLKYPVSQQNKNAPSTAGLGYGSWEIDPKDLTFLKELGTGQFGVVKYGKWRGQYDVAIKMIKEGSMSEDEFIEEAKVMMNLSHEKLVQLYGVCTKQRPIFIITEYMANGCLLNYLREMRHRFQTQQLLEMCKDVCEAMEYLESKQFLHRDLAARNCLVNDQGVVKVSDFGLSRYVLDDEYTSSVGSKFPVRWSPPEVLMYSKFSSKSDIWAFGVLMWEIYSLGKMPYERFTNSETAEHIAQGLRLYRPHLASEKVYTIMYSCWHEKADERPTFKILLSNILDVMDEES
In the case of `Cc1cnc(N)c2c(-c3ccc(C(=O)Nc4cc(C(F)F)ccn4)cc3F)nc([C@@H]3CC[C@H](C)N(C(=O)C4(C)COC4)C3)n12` [Example 462, 4-(8-amino-5-methyl-3-{(3R,6S)-6-methyl-1-[(3-methyloxetan-3-yl)carbonyl]piperidin-3-yl}imidazo[1,5-a]pyrazin-1-yl)-N-[4-(difluoromethyl)pyridin-2-yl]-3-fluorobenzamide], the IC50 is less than 10 nM.

Take `CC1(C(=O)N2CCC[C@@H](c3nc(-c4ccc(C(=O)Nc5ccc(F)cn5)cc4)c4c(N)nccn34)C2)COC1` [Example 351, 4-(8-amino-3-{(3R)-1-[(3-methyloxetan-3-yl)carbonyl]piperidin-3-yl}imidazo[1,5-a]pyrazin-1-yl)-N-(5-fluoropyridin-2-yl)benzamide]: the IC50 is 10 to 100 nM.

Regarding `COc1ccnc(NC(=O)c2ccc(-c3nc([C@@H]4CCCN(C(=O)C5(C)COC5)C4)n4ccnc(N)c34)cc2)n1` [Example 361, 4-(8-amino-3-{(3R)-1-[(3-methyloxetan-3-yl)carbonyl]piperidin-3-yl}imidazo[1,5-a]pyrazin-1-yl)-N-(4-methoxypyrimidin-2-yl)benzamide], the IC50 was in the range of 100 to 1000 nM.

`Cn1cc(CN2C[C@H](c3nc(-c4ccc(C(=O)Nc5cc(C(F)(F)F)ccn5)cc4)c4c(N)nccn34)OC[C@@H]2CO)cn1` [Example 548, 4-(8-amino-3-{(2R,5S)-5-(hydroxymethyl)-4-[(1-methyl-1H-pyrazol-4-yl)methyl]morpholin-2-yl}imidazo[1,5-a]pyrazin-1-yl)-N-[4-(trifluoromethyl)pyridin-2-yl]benzamide, TFA salt]: the IC50 was less than 10 nM.

On to `CNC(=O)N1C[C@@H](c2nc(-c3ccc(C(=O)Nc4cc(C(F)(F)F)ccn4)cc3)c3c(N)nccn23)CC[C@@H]1C(F)(F)F` [Example 412, (2R,5S)-5-[8-amino-1-(4-{[4-(trifluoromethyl)pyridin-2-yl]carbamoyl}phenyl)imidazo[1,5-a]pyrazin-3-yl]-N-methyl-2-(trifluoromethyl)piperidine-1-carboxamide], for which the IC50 is less than 10 nM.

As to `COc1ccnc(NC(=O)c2ccc(-c3nc([C@@H]4CCCN(C(C)=O)C4)n4c(C)cnc(N)c34)cc2)c1` [Example 460, 4-{3-[(3R)-1-acetylpiperidin-3-yl]-8-amino-5-methylimidazo[1,5-a]pyrazin-1-yl}-N-(4-methoxypyridin-2-yl)benzamide], the IC50 is less than 10 nM.

On to `Nc1nccn2c([C@H]3CC[C@H](C(F)(F)F)N(C(=O)C4CC4)C3)nc(-c3ccc(C(=O)Nc4cc(F)ccn4)cc3)c12` [Example 424, 4-{8-amino-3-[(3S,6R)-1-(cyclopropylcarbonyl)-6-(trifluoromethyl)piperidin-3-yl]imidazo[1,5-a]pyrazin-1-yl}-N-(4-fluoropyridin-2-yl)benzamide], for which the IC50 is less than 10 nM.

In the case of `CC1(C(=O)N2CCO[C@@H](c3nc(-c4ccc(C(=O)Nc5cc(C(F)(F)F)ccn5)cc4)c4c(N)ncc(Cl)n34)C2)COC1` [Example 505, 4-(8-amino-5-chloro-3-{(2R)-4-[(3-methyloxetan-3-yl)carbonyl]morpholin-2-yl}imidazo[1,5-a]pyrazin-1-yl)-N-[4-(trifluoromethyl)pyridin-2-yl]benzamide], the IC50 is less than 10 nM.

For the compound `COc1ccc(NC(=O)c2ccc(-c3nc([C@@H]4CCCN(C(=O)C5(C)COC5)C4)n4ccnc(N)c34)cc2)nc1` [Example 325, (R)-4-(8-amino-3-(1-(3-methyloxetane-3-carbonyl)piperidin-3-yl)imidazo[1,5-a]pyrazin-1-yl)-N-(5-methoxypyridin-2-yl)benzamide], the IC50 is 10 to 100 nM.

As to `C[C@H]1CC[C@@H](c2nc(-c3ccc(C(=O)Nc4cc(C(F)(F)F)ccn4)cc3)c3c(N)nccn23)CN1C(=O)C1(C)COC1` [Example 393, 4-(8-amino-3-{(3R,6S)-6-methyl-1-[(3-methyloxetan-3-yl)carbonyl]piperidin-3-yl}imidazo[1,5-a]pyrazin-1-yl)-N-[4-(trifluoromethyl)pyridin-2-yl]benzamide], the IC50 is less than 10 nM.

For `Nc1ncc(Cl)n2c([C@@H]3CCCN(C(=O)CO)C3)nc(-c3ccc(C(=O)Nc4cc(C(F)(F)F)ccn4)cc3)c12` [Example 441, 4-{8-amino-5-chloro-3-[(3R)-1-(hydroxyacetyl)piperidin-3-yl]imidazo[1,5-a]pyrazin-1-yl}-N-[4-(trifluoromethyl)pyridin-2-yl]benzamide], the IC50 was less than 10 nM.

Turning to `Nc1nccn2c([C@@H]3CCCN(C(=O)NC4CC4)C3)nc(-c3ccc(C(=O)Nc4cc(C(F)(F)F)ccn4)cc3F)c12` [Example 489, (3R)-3-[8-amino-1-(2-fluoro-4-{[4-(trifluoromethyl)pyridin-2-yl]carbamoyl}phenyl)imidazo[1,5-a]pyrazin-3-yl]-N-cyclopropylpiperidine-1-carboxamide], the IC50 is less than 10 nM.

On to `CCOCC(=O)N1CCC[C@@H](c2nc(-c3ccc(C(=O)Nc4cc(C(F)(F)F)ccn4)cc3)c3c(N)nccn23)C1` [Example 339, 4-{8-amino-3-[(3R)-1-(ethoxyacetyl)piperidin-3-yl]imidazo[1,5-a]pyrazin-1-yl}-N-[4-(trifluoromethyl)pyridin-2-yl]benzamide], for which the IC50 was less than 10 nM.

As for `C[C@H](O)C(=O)N1CCC[C@@H](c2nc(-c3ccc(C(=O)Nc4cc(C(F)(F)F)ccn4)cc3)c3c(N)nccn23)C1` [Example 345, 4-(8-amino-3-{(3R)-1-[(2S)-2-hydroxypropanoyl]piperidin-3-yl}imidazo[1,5-a]pyrazin-1-yl)-N-[4-(trifluoromethyl)pyridin-2-yl]benzamide], the IC50 was less than 10 nM.

As for `Cn1cc2c(n1)CCC[C@H]2n1nc(-c2ccc(C(=O)Nc3cc(C(F)(F)F)ccn3)cc2)c2c(N)ncnc21` [Example 557, 4-{4-amino-1-[(4R)-2-methyl-4,5,6,7-tetrahydro-2H-indazol-4-yl]-1H-pyrazolo[3,4-d]pyrimidin-3-yl}-N-[4-(trifluoromethyl)pyridin-2-yl]benzamide, TFA salt], the IC50 lay in the range of 100 to 1000 nM.

As to `CCN1CCO[C@@H](c2nc(-c3ccc(C(=O)Nc4cc(C(F)(F)F)ccn4)cc3)c3c(N)ncc(Cl)n23)C1` [Example 522, 4-{8-amino-5-chloro-3-[(2R)-4-ethylmorpholin-2-yl]imidazo[1,5-a]pyrazin-1-yl}-N-[4-(trifluoromethyl)pyridin-2-yl]benzamide], the IC50 was less than 10 nM.

As for `C[C@H](O)C(=O)N1CCO[C@@H](c2nc(-c3ccc(C(=O)Nc4cc(C(F)(F)F)ccn4)cc3)c3c(N)ncc(Cl)n23)C1` [Example 523, 4-(8-amino-5-chloro-3-{(2R)-4-[(2S)-2-hydroxypropanoyl]morpholin-2-yl}imidazo[1,5-a]pyrazin-1-yl)-N-[4-(trifluoromethyl)pyridin-2-yl]benzamide], the IC50 was less than 10 nM.

Take `Cc1nc(NC(=O)c2ccc(-c3nc([C@@H]4CCCN(C(=O)C5(C)COC5)C4)n4ccnc(N)c34)cc2)sc1C` [Example 367, 4-(8-amino-3-{(3R)-1-[(3-methyloxetan-3-yl)carbonyl]piperidin-3-yl}imidazo[1,5-a]pyrazin-1-yl)-N-(4,5-dimethyl-1,3-thiazol-2-yl)benzamide]: the IC50 is less than 10 nM.

Still in this assay, the particulars now being: Table D; Assay Method C (LANCE TR-FRET), 50 pM hBTK, 25 μM ATP; read-out: IC50 BTK activity value.
In the case of `C[C@H]1CC[C@@H](c2nc(-c3ccc(C(=O)Nc4cc(C(F)(F)F)ccn4)cc3)c3c(N)nccn23)CN1C(=O)C1(C)COC1` [Example 393, 4-(8-amino-3-{(3R,6S)-6-methyl-1-[(3-methyloxetan-3-yl)carbonyl]piperidin-3-yl}imidazo[1,5-a]pyrazin-1-yl)-N-[4-(trifluoromethyl)pyridin-2-yl]benzamide], the IC50 stood at 0.167 nM.

Regarding `C[C@H](O)C(=O)N1CCC[C@@H](c2nc(-c3ccc(C(=O)Nc4cc(C(F)(F)F)ccn4)cc3)c3c(N)nccn23)C1` [Example 345, 4-(8-amino-3-{(3R)-1-[(2S)-2-hydroxypropanoyl]piperidin-3-yl}imidazo[1,5-a]pyrazin-1-yl)-N-[4-(trifluoromethyl)pyridin-2-yl]benzamide], the IC50 came to 0.472 nM.
